The values below come from ChEMBL document CHEMBL5120814, “Molecular Networking-Based Screening Led to the Discovery of a Cyclic Heptadepsipeptide from an Endolichenic Xylaria sp” (J Nat Prod, 2022).

Each structure is given as a SMILES string.

The subject of data set [1] is HT-29. The experiment in a line: Cytotoxicity against human HT-29 cells assessed as inhibition of cell proliferation incubated for 48 hrs by MTT assay. Type of data set: functional, cell-based. To be noted: HT-29, 48 h. Background: Tetrazolium assays rely on reduction of a dye to a coloured formazan, in cell work by metabolically active cells.
In data set [2] the test system is RKO. The experiment in a line: Cytotoxicity against human RKO cells assessed as inhibition of cell proliferation incubated for 48 hrs by MTT assay. Format: functional, cell-based.
The subject of data set [3] is NCI-H1299. The experiment in a line: Cytotoxicity against human NCI-H1299 cells assessed as inhibition of cell proliferation incubated for 48 hrs by MTT assay. Type of data set: functional, cell-based. The note with it: NCI-H1299, 48 h.
Data set [4] relates to PC-9. The experiment in a line: Cytotoxicity against human PC-9 cells assessed as inhibition of cell proliferation incubated for 48 hrs by MTT assay. Type of data set: functional, cell-based. The note with it: PC-9, 48 h.
The test system of data set [5] is BT-549. The data set can be described thus: Cytotoxicity against human BT-549 cells assessed as inhibition of cell proliferation incubated for 48 hrs by MTT assay. Type of data set: functional, cell-based. The note with it: BT-549, 48 h.
For data set [6], the system named is BT-549. The experiment in a line: Potency index, ratio of cisplatin IC50 to test compound IC50 for cytotoxicity against human BT-549 cells. Format: functional.
Data set [7] can be described thus: Cytotoxicity against human HMLE cells assessed as inhibition of cell proliferation incubated for 48 hrs by MTT assay. Type of data set: toxicity, cell-based.
The nature of data set [8]: Selectivity ratio of IC50 for cytotoxicity against human HMLE cells to IC50 for cytotoxicity against human BT-549 cells. Type of data set: toxicity, cell-based. The note with it: HMLE cells and BT-549 cells, read-out: Ratio IC50.
Data set [9] concerns BT-549. The data set can be described thus: Induction of cell cycle arrest in human BT-549 cells assessed as accumulation at G0/G1 phase at 5 uM incubated for 24 hrs by propidium iodide staining based flow cytometry (reference value: 22.97%). Format: functional. (In general: Flow cytometry measures light scatter and fluorescence of single cells or particles in a stream.)
For data set [10], the system named is BT-549. The experiment in a line: Induction of cell cycle arrest in human BT-549 cells assessed as accumulation at S phase at 5 uM incubated for 24 hrs by propidium iodide staining based flow cytometry (reference value: 50.87%). Type of data set: functional.
Data set [11] concerns BT-549. The experiment in a line: Induction of cell cycle arrest in human BT-549 cells assessed as accumulation at G2/M phase at 5 uM incubated for 24 hrs by propidium iodide staining based flow cytometry (reference value: 22.59%). Type of data set: functional.

Turning to `CC[C@H](C)[C@H]1NC(=O)[C@@H](CC(C)C)NC(=O)[C@@H](CC(C)C)N(C)C(=O)[C@@H]2CCCN2C(=O)[C@H](CC(C)C)NC(=O)[C@H](Cc2ccccc2)OC(=O)[C@@H]2CCCN2C1=O`, the IC50 in [1] was 2500 nM; in [2], 9500 nM; in data set [3], 2500 nM; in data set [4] it was 2500 nM; in [5], 2500 nM. In [6], the “Ratio IC50” value was 3.4. Besides, the IC50 at 48 h in data set [7] stood at 7300 nM. The selectivity ratio in data set [8] is 3. Also, the Activity in [9] came to 41.84%; in data set [10], 32.49%; in [11] it was 18.34%.

As usually defined, the IC50 is the concentration needed to halve the response being measured.
